Results as given in paper PMC10485906, “Development of a Dihydroquinoline–Pyrazoline GluN2C/2D-Selective Negative Allosteric Modulator of the N-Methyl-D-aspartate Receptor” (ACS Chemical Neuroscience, 2023).
“Also recorded” adds a separate entry of the source.

Assays:
GluN1/GluN2B = target: T1, GluN1/GluN2B (Rattus norvegicus, UniProt Q00960); set-up: method as in PMID 23909910; settings: reproduced for comparison; cited from earlier work
T1 construct: GluN2B (NM_012574.1), GluN2C (NM_012575.3), and GluN2D (NM_022797.2) were provided by; expressed in transfected cells; host or cells: Xenopus laevis oocytes (cRNA injection)
T1 sequence (Q00960 27-1482, other chains not shown): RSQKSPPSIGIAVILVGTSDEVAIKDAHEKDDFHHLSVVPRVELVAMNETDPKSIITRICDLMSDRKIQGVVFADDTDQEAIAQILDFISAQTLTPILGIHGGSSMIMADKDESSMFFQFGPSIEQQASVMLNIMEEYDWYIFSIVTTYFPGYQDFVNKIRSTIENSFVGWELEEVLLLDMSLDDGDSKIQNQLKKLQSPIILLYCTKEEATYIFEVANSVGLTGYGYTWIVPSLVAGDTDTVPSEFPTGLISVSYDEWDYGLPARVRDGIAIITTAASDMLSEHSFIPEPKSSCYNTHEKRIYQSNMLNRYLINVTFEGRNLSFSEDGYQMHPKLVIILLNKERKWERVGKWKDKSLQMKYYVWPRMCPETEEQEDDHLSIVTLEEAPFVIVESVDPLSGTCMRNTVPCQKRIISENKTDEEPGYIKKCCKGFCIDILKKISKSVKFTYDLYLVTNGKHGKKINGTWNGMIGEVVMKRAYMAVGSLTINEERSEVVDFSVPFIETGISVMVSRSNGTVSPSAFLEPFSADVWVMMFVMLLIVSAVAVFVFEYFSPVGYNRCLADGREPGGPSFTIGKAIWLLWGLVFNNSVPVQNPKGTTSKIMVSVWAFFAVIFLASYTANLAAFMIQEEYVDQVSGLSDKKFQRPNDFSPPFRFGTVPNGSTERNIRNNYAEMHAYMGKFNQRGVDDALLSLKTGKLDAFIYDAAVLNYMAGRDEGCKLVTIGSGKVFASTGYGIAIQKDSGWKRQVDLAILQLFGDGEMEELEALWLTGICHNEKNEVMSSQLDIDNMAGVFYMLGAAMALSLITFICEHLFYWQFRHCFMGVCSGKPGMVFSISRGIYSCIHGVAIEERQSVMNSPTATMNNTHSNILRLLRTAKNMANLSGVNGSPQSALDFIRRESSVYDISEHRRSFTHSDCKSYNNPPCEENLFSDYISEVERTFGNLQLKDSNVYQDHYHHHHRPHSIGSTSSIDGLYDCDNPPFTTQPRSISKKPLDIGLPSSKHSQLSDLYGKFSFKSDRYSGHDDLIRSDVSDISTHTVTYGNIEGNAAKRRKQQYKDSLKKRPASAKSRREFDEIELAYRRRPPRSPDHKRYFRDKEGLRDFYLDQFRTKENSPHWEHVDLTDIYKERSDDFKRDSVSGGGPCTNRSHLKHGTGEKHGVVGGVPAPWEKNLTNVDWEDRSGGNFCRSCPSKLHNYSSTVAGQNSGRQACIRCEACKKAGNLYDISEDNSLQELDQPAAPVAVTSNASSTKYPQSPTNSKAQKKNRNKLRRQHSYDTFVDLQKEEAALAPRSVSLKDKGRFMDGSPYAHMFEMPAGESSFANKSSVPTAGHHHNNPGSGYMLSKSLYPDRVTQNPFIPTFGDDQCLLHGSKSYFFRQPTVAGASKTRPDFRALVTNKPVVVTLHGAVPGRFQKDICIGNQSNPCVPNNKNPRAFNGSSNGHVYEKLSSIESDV

GluN1/GluN2A = target: T2, GluN1/GluN2A (Rattus norvegicus, UniProt Q00959); set-up: method as in PMID 23909910; settings: reproduced for comparison; cited from earlier work
T2 construct: expressed in transfected cells; host or cells: Xenopus laevis oocytes (cRNA injection)
T2 sequence (Q00959 23-1464, other chains not shown): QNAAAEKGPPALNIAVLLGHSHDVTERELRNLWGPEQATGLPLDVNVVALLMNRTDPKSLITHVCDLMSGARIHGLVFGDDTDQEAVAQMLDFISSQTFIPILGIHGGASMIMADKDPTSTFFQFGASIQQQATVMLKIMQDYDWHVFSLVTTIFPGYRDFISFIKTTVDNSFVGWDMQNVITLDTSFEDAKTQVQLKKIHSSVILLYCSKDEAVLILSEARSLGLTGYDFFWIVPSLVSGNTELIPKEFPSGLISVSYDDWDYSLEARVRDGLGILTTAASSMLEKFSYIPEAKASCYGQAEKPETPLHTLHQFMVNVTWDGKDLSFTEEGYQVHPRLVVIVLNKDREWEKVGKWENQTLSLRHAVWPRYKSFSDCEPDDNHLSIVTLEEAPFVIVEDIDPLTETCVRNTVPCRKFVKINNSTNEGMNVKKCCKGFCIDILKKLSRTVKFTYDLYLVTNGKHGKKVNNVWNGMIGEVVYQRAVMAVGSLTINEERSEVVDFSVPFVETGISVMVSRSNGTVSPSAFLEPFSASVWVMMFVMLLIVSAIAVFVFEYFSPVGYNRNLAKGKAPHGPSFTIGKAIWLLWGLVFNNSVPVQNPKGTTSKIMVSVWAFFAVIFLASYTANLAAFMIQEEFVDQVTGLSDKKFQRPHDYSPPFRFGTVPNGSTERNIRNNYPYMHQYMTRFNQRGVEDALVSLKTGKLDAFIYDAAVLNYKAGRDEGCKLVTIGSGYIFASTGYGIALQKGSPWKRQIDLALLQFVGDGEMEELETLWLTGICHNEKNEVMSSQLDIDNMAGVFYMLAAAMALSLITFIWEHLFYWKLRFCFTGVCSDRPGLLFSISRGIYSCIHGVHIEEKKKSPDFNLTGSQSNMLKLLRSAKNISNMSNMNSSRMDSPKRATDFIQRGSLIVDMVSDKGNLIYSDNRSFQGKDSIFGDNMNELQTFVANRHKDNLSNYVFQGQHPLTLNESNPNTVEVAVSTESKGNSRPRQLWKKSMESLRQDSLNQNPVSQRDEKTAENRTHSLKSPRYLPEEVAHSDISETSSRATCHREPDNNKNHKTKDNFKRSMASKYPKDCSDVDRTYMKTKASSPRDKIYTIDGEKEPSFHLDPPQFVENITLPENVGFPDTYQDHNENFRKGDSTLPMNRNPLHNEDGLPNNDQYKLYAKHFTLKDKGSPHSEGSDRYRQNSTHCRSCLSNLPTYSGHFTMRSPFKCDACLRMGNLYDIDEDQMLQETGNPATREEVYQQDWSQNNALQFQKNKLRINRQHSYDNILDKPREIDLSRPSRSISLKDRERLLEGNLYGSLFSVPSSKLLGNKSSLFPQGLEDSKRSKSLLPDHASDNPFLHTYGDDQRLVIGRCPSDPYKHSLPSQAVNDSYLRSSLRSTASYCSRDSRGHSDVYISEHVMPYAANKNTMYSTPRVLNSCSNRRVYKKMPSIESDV

Tsc1^± mice = assay: Acute epileptic mouse model, EEG recordings of seizures; format: in vivo
Procedure: All experiments were conducted in agreement with the requirements of the European Directive 2010/63/EU. Mice were housed in ventilated, light-tight, sound-isolated chambers under a standard 12:12 light/dark cycle (light on at […]) with food and water available ad libitum. C57BL/6J wild-type (Tsc1^+/+) females from Janvier Laboratories (France) were crossed with heterozygote Tsc1^± male mice with the genetic background B6;129S4-Tsc1^tm1.1Djk/Nci. The genotyping of pups issuing from this cross-breeding was performed on tail tissue samples at postnatal day P9. The study was conducted in Tsc1^± male mice at P14–16. Pups from at least three deliveries for each condition were studied to minimize the potential sampling bias.
The DQP derivative 2i was diluted in DMSO at a concentration of 100 mM before being added to 100 to 150 μL of saline solution and intraperitoneally injected in mice. Intraperitoneal injection was administered during the EEG recordings at three different concentrations: 7, 14, and 28 mg/kg to estimate the dose–response relationship.
Experiments were performed on postnatal days of P14 and P16 male Tsc1^± mice. Surgery was performed under isoflurane anesthesia and lidocaine analgesia. During recordings, the head was fixed to the frame of a stereotaxic apparatus by attached bars; animals were surrounded by a cotton nest and heated via a thermal pad (36.6–37.7 °C). A silver chloride reference electrode was placed in the cerebellum. EEG recordings were performed with nonanaesthetized head-restrained Tsc1^± mice. […] Recordings were analyzed offline using Clampfit (Molecular Devices, San Jose) and Origin (MicroCal, Northampton, MA) software. […] During EEG recordings, animals were monitored visually to determine the behavioral correlates of each electrographic epileptic discharge. […]

α7-nACh = α7-nACh (Rattus norvegicus, UniProt Q05941); assay: Off-target, oocytes, nicotinic acetylcholine α7; format: cell-based; settings: 1 µM compound; 300 µM acetylcholine
α7-nACh, sequence (Q05941 23-502): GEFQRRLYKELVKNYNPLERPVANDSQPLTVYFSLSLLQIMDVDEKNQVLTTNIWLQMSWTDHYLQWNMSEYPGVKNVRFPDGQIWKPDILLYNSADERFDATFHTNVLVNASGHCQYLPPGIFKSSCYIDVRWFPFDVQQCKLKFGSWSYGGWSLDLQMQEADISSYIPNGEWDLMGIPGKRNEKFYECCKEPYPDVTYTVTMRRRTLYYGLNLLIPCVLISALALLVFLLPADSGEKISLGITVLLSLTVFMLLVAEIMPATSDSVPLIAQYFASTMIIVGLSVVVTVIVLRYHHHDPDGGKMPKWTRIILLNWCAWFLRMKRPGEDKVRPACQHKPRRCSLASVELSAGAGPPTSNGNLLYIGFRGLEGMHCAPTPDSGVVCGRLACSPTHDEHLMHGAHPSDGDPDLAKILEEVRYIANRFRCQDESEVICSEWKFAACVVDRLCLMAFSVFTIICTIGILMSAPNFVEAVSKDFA
Procedure: (§1) Analysis of Off-target Actions
(§2) Compound (S)-(-)-2i was tested at 1 µM for actions at glycine-activated GluN1/GluN3A (human GluN1-F484A,T518L/GluN3A referred to a GluN1-FA,TL/GluN3A) and rat GluN1-4a/GluN3B in the presence of 0.5 µM CGP-78608. cRNA injection ratios for GluN1/GluN3 were 1:2. Compound (S)-(-)- 2i was also tested for actions at AMPA (rat GluA1, rat GluA2, human GluA3-L531Y), kainate (rat GluK2), nicotinic acetylcholine (rat α7 and α4β2, cRNA ratio 1:1), GABAA (rat α1β2γ2S, cRNA ratio 1:1:1), GABAC (rat ρ1), glycine (rat α1), and purinergic (human P2X) receptors expressed in Xenopus oocytes. cRNA encoding the receptor subunits was synthesized from linear template cDNA using the mMessage mMachine kit (Ambion). Oocytes were injected with 1-5 ng cRNA in a 50 nL volume and incubated in Barth's solution at 15°C for 2-5 days prior to recording. GluK2-expressing oocyte were incubated in 1 mg/ml (10 µM) concanavalin-A for 10 min prior to recording. The cDNAs encoding GABAC and glycine subunits were provided by Dr. D. Weiss (University of Texas Health Science Center at San Antonio). cDNAs encoding nicotinic acetylcholine receptor subunits were provided by Drs. […]
(§3) GABA. […] Responses in presence of test compound were expressed as a percent of control. […]

GluA2-R607Q = target: T3, GluA2-R607Q (Rattus norvegicus, UniProt P19491); assay: Off-target, oocytes, GluA2; format: cell-based; settings: 1 µM compound; 100 µM glutamate
T3 construct: expressed in transfected cells; host or cells: Xenopus oocytes (cRNA injection)
T3 sequence (P19491 22-883, stated change not applied): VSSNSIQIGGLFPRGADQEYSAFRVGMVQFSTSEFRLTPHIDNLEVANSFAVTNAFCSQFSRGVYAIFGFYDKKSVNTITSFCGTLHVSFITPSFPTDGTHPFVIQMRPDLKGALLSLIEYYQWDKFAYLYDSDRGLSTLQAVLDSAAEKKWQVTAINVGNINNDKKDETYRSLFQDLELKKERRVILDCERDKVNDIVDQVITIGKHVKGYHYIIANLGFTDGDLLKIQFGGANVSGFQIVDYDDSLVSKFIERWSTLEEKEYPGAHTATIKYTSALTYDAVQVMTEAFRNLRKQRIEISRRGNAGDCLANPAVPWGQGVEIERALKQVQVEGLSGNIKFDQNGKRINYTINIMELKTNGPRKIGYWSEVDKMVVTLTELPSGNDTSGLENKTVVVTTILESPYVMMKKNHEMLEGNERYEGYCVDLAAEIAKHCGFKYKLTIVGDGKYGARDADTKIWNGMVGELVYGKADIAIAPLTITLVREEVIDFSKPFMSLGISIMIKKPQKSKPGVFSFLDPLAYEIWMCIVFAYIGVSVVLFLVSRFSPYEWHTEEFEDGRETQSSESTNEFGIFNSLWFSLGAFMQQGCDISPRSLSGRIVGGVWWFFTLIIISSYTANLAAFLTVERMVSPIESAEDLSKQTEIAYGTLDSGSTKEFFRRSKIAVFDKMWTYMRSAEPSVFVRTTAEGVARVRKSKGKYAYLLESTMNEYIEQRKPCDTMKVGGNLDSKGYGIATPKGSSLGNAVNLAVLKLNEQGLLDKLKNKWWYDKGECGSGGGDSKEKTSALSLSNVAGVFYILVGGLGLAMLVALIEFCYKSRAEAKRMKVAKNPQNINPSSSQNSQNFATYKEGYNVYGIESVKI
Procedure: as §1, §2, §3

[1] = test system: AMPA, kainate, GluN1/GluN3, GABA, glycine, nicotinic, purinergic P2X receptors; assay: Off-target actions, summary in words; format: cell-based; settings: 1 μM
Procedure: By contrast, the other enantiomer (R)-(+)-2i had lower potency and produced shallow, incomplete inhibition (Figure S11).
as §1, §2, §3

O=C(O)CCC(=O)N1N=C(c2c(-c3ccc(Cl)cc3)c3ccccc3[nH]c2=O)CC1c1ccc(Cl)cc1 (centres unmarked) [2a]
I 30 μM / I control GluN2B (GluN1/GluN2B): 44 ± 1.6 (2,8) % | I 30 μM / I control GluN2A (GluN1/GluN2A): 37 ± 4.6 (2,10) %

O=C(O)CC(F)(F)C(=O)N1N=C(c2c(-c3ccc(Cl)cc3)c3ccccc3[nH]c2=O)CC1c1ccc(Cl)cc1 (centres unmarked) [2i]
effect on spontaneous electrographic seizures (Tsc1^± mice; 14 mg/kg IP, male Tsc1^± mice P14–16, neocortical layers 2/3 and 4): significantly reduced spontaneous electrographic seizures | effect on epileptic events (Tsc1^± mice; 28 mg/kg IP, male Tsc1^± mice P14–16): epileptic events stopped immediately | effect on number of epileptic events (Tsc1^± mice; murine model of TSC-induced epilepsy, abstract): significantly reduced the number of epileptic events

O=C(O)CC(F)(F)C(=O)N1N=C(c2c(-c3ccc(Cl)cc3)c3ccccc3[nH]c2=O)C[C@H]1c1ccc(Cl)cc1 [(S)-(−)-2i]
% control α7-nACh (α7-nACh): 105 ± 13.5% | % control GluA2-R607Q (GluA2-R607Q): 98 ± 0.85% | off-target actions [1]: no effects; also recorded: no activity
